Experimental findings from patent publication US20170050980A1, “OXADIAZINE COMPOUNDS AND METHODS OF USE THEREOF” (FORUM Pharmaceuticals Inc., priority 2015, published 2017) are described below.

One may read the IC50 as the concentration needed to halve the response being measured.

The subject of the test is Aβ42. Briefly: In vitro cell screening assay; quantification of Aβ (1-42) peptide by sandwich ELISA. It counts as cell-based. The note with it: Human neuroglioma H4 cells stably expressing human wild type APP751; compounds 0.003-10 μM, incubated overnight (16-18 h); Aβ42 in supernatant by sandwich ELISA; normalized to DMSO and DAPT; read-out: Aβ42 H4 Prot Fre IC50. As for the experimental part: Human neuroglioma H4 cells were transfected with a pcDNA3.1 plasmid expressing human wild type APP751 cDNA and a stable cell line was generated using G418 selection. Cells were plated at 15,000 cells/well in Costar 96-well plates and placed at 37° C. and 5% CO2. Six hours after plating, cells were washed three times with Pro293™ chemically defined medium, followed by addition of compounds (0.003-10 μM, final DMSO concentration of 0.33%). Plates were incubated overnight (16-18 h) and supernatant was removed for quantification of Aβ peptides by sandwich ELISA. Cytotoxicity was evaluated using Cell-Titer 96W AQueous One Solution Cell Proliferation Assay according to the manufacturer's protocol.
Aβ peptide levels were quantified by sandwich ELISA. 96-well plates were coated with C-terminal specific Aβ antibodies recognizing either Aβ37, Aβ38, Aβ40, Aβ42, Aβ43 or a N-terminal specific Aβ antibody to detect Aβ 1-x. Plates were then blocked overnight at 4° C. with 1% bovine serum albumin (BSA) in PBS-T. Plates were washed and 100 μl of cultured cell supernatant or synthetic Aβ peptide standards and a detection antibody (4G8-HRP) were applied to the blocked plate and incubated overnight at 4° C. The next day, wells were washed before the addition of detection substrate (TMB peroxidase). Plates were then read for absorbance at 450 nm on a Molecular Devices SpectraMax M5e Microplate Reader.
Compound-treated samples were normalized to samples treated with DMSO alone (no inhibition) and to samples treated with DAPT. IC50 values were calculated from values reported as percent of DMSO controls using nonlinear regression, based on a sigmoidal dose—response (variable slope) model. […] used for calculation.
A general note: An ELISA detects its analyte on a solid surface through an enzyme-linked reagent.
With `COc1nc(C2=NOC(C)C(c3cn(C)c4ncc(Cl)cc34)N2)ccc1-n1cnc(C)c1` (single isomer, unassigned; (-)) [Example 54C, (−)-5-(5-chloro-1-methyl-1H-pyrrolo [2,3-b]pyridin-3-yl)-3-(6-methoxy-5-(4-methyl-1H-imidazol-1-yl)pyridin-2-yl)-6-methyl-5,6-dihydro-4H-1,2,4-oxadiazine], the IC50 is 464 nM.
Consider `COc1nc(C2=NOC(C)C(c3cn(C)c4ccc(F)c(F)c34)N2)ccc1-n1cnc(C)c1` (single isomer, unassigned; (+)) [Example 52C, (+)-5-(4,5-difluoro-1-methyl-1H-indol-3-yl)-3-(6-methoxy-5-(4-methyl-1H-imidazol-1-yl)pyridin-2-yl)-6-methyl-5,6-dihydro-4H-1,2,4-oxadiazine], for which the IC50 stood at 5.8 nM.
As for `COc1nc(C2=NOCC(c3c4n(c5ccccc35)CCOC4)N2)ccc1-n1cnc(C)c1` (single isomer, unassigned; (-)) [Example 30A, (−)-10-(3-(6-methoxy-5-(4-methyl-1H-imidazol-1-yl)pyridin-2-yl)-5,6-dihydro-4H-1,2,4-oxadiazin-5-yl)-3 ,4-dihydro-1H-[1,4]oxazino[4,3-a]indole], the figure is 323 nM; as for `COc1nc(C2=NOC(C)C(c3ccc(Cl)c(Cl)c3)N2)ccc1-n1cnc(C)c1` (stereo not drawn) [Example 19A, (−)-cis-5-(3,4-dichlorophenyl)-3-[6-methoxy-5-(4-methyl-1H-imidazol-1-yl)pyridin-2-yl]-6-methyl-5,6-dihydro-4H-1,2,4-oxadiazine], 910 nM.
On to `COc1nc(C2=NOC(C)C(c3ccc(Cl)cc3)N2)ccc1-n1cnc(Cl)c1` (single isomer, unassigned; (-)) [Example 42A, (−)-3-(5-(4-chloro-1H-imidazol-1-yl)-6-methoxypyridin-2-yl)-5-(4-chlorophenyl)-6-methyl-5,6-dihydro-4H-1,2,4-oxadiazine], for which the IC50 is over 3000 nM.
Under `COc1nc(C2=NO[C@@H](C)[C@@H](c3ccc(Cl)cc3)N2)ccc1-n1cnc(C)c1` [Example 18A, (−)-(5R,6S)-5-(4-chlorophenyl)-3-[6-methoxy-5-(4-methyl-1H-imidazol-1-yl)pyridin-2-yl]-6-methyl-5,6-dihydro-4H-1,2,4-oxadiazine] stands 2220 nM; under `COc1nc(C2=NOC(C3CC3)C(c3cc(F)cc(F)c3)N2)ccc1-n1cnc(C)c1` (single isomer, unassigned; (+)) [Example 59A, (+)-6-cyclopropyl-5-(3,5-difluorophenyl)-3-(6-methoxy-5-(4-methyl-1H-imidazol-1-yl)pyridin-2-yl)-5,6-dihydro-4H-1,2,4-oxadiazine], 20.7 nM.
As for `COc1nc(C2=NOC(C)C(c3ccc(Cl)cc3)N2)ccc1-n1cnc(C)c1` (stereo not drawn) [Example 24A, (−)-trans-5-(4-chlorophenyl)-3-[6-methoxy-5-(4-methyl-1H-imidazol-1-yl)pyridin-2-yl]-6-methyl-5,6-dihydro-4H-1,2,4-oxadiazine], the figure is 1200 nM; as for `COc1nc(C2=NOC(C)C(c3cn(C)c4ncc(C(F)(F)F)cc34)N2)ccc1-n1cnc(C)c1` (single isomer, unassigned; (+)) [44D or 45D, (+)-3-(6-methoxy-5-(4-methyl-1H-imidazol-1-yl)pyridin-2-yl)-6-methyl-5-(1-methyl-5-(trifluoromethyl)-1H-pyrrolo[2,3-b]pyridin-3-yl)-5,6-dihydro-4H-1,2,4-oxadiazine], 4.3 nM.
With `COc1nc(C2=NOC3(CC3)C(c3ccc(Cl)cc3)N2)ccc1-n1cnc(C)c1` (single isomer, unassigned; (+)) [Example 25B, (+)-8-(4-chlorophenyl)-6-[6-methoxy-5-(4-methyl-1H-imidazol-1-yl)pyridin-2-yl]-4-oxa-5,7-diazaspiro[2.5]oct-5-ene], the IC50 is 26 nM.
